Assay results as given in US20210393678A1, “PERSONALIZED FOOD PRODUCTS FOR ENSURING ADEQUATE IRON INTAKE” (MY-OR D[…]., priority 2018, published 2021).

Columns and labels:
[1] = clinical studies; cited from earlier work
[2] = Noninvasive total blood hemoglobin in immoderate iron deficient subjects before and after 2 weeks of iron chelate; assay type: in vivo, human; settings: immoderate iron deficient subjects 2-7 years of age, baseline average 10.03 g/dL, 1 mL (15 mg) daily, Masimo rainbow SET SpHb
Description: To examine this, the inventors have recruited a population (2-7 years of age) of immoderate iron deficient subjects having an average hemoglobin level of 10.03 g/dL. Total blood hemoglobin levels were measured noninvasively at baseline (time 0) and following treatment (after 2 weeks) from the index finger of subjects using Masimo rainbow SET SpHb technology. Subjects were instructed to take 1 mL of iron bis-glycinate chelate (15 mg) daily.

SMILES | hemoglobin and ferritin indices compared with ferrous sulfate or ferrous ascorbate [1] | average total blood hemoglobin level following treatment ([2]; after two weeks) [g/dL] | increase of total blood hemoglobin level, on average ([2]; two weeks, index finger) [%]
NCC(=O)[O-].NCC(=O)[O-].[Fe+2] [Ferrochel, ferrous bis glycinate] | improved hemoglobin and ferritin indices at lower dosages than ferrous sulfate or ferrous ascorbate |  | 
NCC(=O)[O-].NCC(=O)[O-].[Fe+2] [iron bis-glycinate chelate] |  | 11.13 | 11
